Results taken from ChEMBL document CHEMBL4406840, “Design and synthesis of novel artemisinin derivatives with potent activities against colorectal cancer in vitro and in vivo” (Eur J Med Chem, 2019).
Calls of active or inactive are those of the source. The rule behind the calls is not given here.

Key:
[1] = tested on: HCT-116; assay: cells; format: functional, cell-based; details: Homo sapiens, HCT-116, 48 h
Description: Antiproliferative activity against human HCT116 cells assessed as inhibition of cell viability after 48 hrs by MTS assay

[2] = tested on: WM 266-4; assay: cells; format: functional, cell-based; details: Homo sapiens, WM 266-4, 48 h
Description: Antiproliferative activity against human WM266.4 cells assessed as inhibition of cell viability after 48 hrs by MTS assay

[3] = tested on: HCT-116; assay: Antitumour activity against human HCT116 cells xenografted in BALB/c nude mouse assessed as delay in tumour growth at 2.5 to 5 mg/kg, ip administered daily for 18 days started from 2 days after tumor cell inoculation by digital caliper method; format: functional, organism-based
[4] = Toxicity in BALB/c nude mouse xenografted with human HCT116 cells assessed as effect on body weight at 2.5 to 5 mg/kg, ip administered daily for 18 days; format: organism-based; details: in vivo, 432 h
[5] = tested on: HCT-116; assay: Antitumour activity against human HCT116 cells xenografted in BALB/c nude mouse assessed as tumour shrunken at 2.5 to 5 mg/kg, ip administered daily for 18 days started from 2 days after tumor cell inoculation by digital caliper method; format: functional, organism-based
[6] = tested on: HCT-116; details: Homo sapiens, at 10 mg/kg
Description: Antitumour activity against human HCT116 cells xenografted in BALB/c nude mouse assessed as reduction in tumour growth at 10 mg/kg, ip administered daily for 18 days started from 2 days after tumor cell inoculation by digital caliper method

[7] = tested on: HCT-116; assay: Potency index, ratio of dihydroartemisinin IC50 to compound IC50 for antiproliferative activity against human HCT116 cells by MTS assay; format: functional

Row | SMILES | IC50 [1] | IC50 [2] | other results
1 | CC(=O)N(c1ccc(F)c(Cl)c1)c1ncnc2ccc(COC(=O)CCC(=O)N[C@@H]3O[C@@H]4O[C@@]5(C)CC[C@H]6[C@H](C)CC[C@@H]([C@H]3C)[C@@]46OO5)cc12 | 12.9 µM | 15.4 µM | 
2 | C[C@H]1[C@H](NC(=O)CCCCC(=O)OCc2ccc3ncnc(Nc4ccc(F)c(Cl)c4)c3c2)O[C@@H]2O[C@@]3(C)CC[C@H]4[C@H](C)CC[C@@H]1[C@@]24OO3 | 5.68 µM | 25.3 µM | 
3 | C[C@H]1[C@H](OC(=O)CCCC(=O)OCc2ccc3ncnc(Nc4ccc(F)c(Cl)c4)c3c2)O[C@@H]2O[C@@]3(C)CC[C@H]4[C@H](C)CC[C@@H]1[C@@]24OO3 | 0.29 µM | 11.4 µM | 
4 | CC(=O)N(c1ccc(F)c(Cl)c1)c1ncnc2ccc(COC(=O)CCCC(=O)N[C@@H]3O[C@@H]4O[C@@]5(C)CC[C@H]6[C@H](C)CC[C@@H]([C@H]3C)[C@@]46OO5)cc12 | 5.35 µM | 5.08 µM | 
5 | C[C@H]1[C@H](OC[C@H](NC(=O)c2ccc3ncnc(Nc4ccc(F)c(Cl)c4)c3c2)c2ccccc2)O[C@@H]2O[C@@]3(C)CC[C@H]4[C@H](C)CC[C@@H]1[C@@]24OO3 | 0.11 µM | 6.67 µM | inhibition [3]: Active; Activity [4]: Non-Toxic; Activity [5]: Active
6 | C[C@H]1[C@H](OCc2ccc3ncnc(Nc4ccc(F)c(Cl)c4)c3c2)O[C@@H]2O[C@@]3(C)CC[C@H]4[C@H](C)CC[C@@H]1[C@@]24OO3 | 0.42 µM | 4.56 µM | 
7 | C[C@H]1[C@H](O)O[C@@H]2O[C@@]3(C)CC[C@H]4[C@H](C)CC[C@@H]1[C@@]24OO3 | 2.85 µM | > 40 µM | inhibition [6]: Active
8 | C[C@H]1[C@@H](OCCCCCOc2ccc3ncnc(Nc4ccc(F)c(Cl)c4)c3c2)O[C@@H]2O[C@@]3(C)CC[C@H]4[C@H](C)CC[C@@H]1[C@@]24OO3 | 0.24 µM | 2.91 µM | Ratio IC50 [7]: 10
9 | C[C@H]1[C@H](OC(=O)CCC(=O)O)O[C@@H]2O[C@@]3(C)CC[C@H]4[C@H](C)CC[C@@H]1[C@@]24OO3 [ARTESUNATE] | 0.89 µM | 8.46 µM | 
10 | C[C@H]1[C@H](NC(=O)CCCC(=O)OCc2ccc3ncnc(Nc4ccc(F)c(Cl)c4)c3c2)O[C@@H]2O[C@@]3(C)CC[C@H]4[C@H](C)CC[C@@H]1[C@@]24OO3 | 5.56 µM | 15.3 µM | 
11 | C[C@H]1[C@H](NC(=O)CCC(=O)OCc2ccc3ncnc(Nc4ccc(F)c(Cl)c4)c3c2)O[C@@H]2O[C@@]3(C)CC[C@H]4[C@H](C)CC[C@@H]1[C@@]24OO3 | 2.78 µM | 9.88 µM | 
12 | C[C@@H]1CC[C@H]2[C@@H](C)C(O[C@@H](C(=O)OCc3ccc4ncnc(Nc5ccc(F)c(Cl)c5)c4c3)c3ccccc3)O[C@@H]3O[C@@]4(C)CC[C@@H]1[C@]32OO4 (stereo partly drawn) | 0.68 µM |  | 
13 | CC(=O)N(c1ccc(F)c(Cl)c1)c1ncnc2ccc(COC(=O)CCCCC(=O)O[C@@H]3O[C@@H]4O[C@@]5(C)CC[C@H]6[C@H](C)CC[C@@H]([C@H]3C)[C@@]46OO5)cc12 | 0.66 µM | 18.8 µM | 
14 | C[C@H]1[C@H](OC(=O)CCC(=O)OCc2ccc3ncnc(Nc4ccc(F)c(Cl)c4)c3c2)O[C@@H]2O[C@@]3(C)CC[C@H]4[C@H](C)CC[C@@H]1[C@@]24OO3 | 0.18 µM | 10.2 µM | 
15 | O=C(O)c1ccc2ncnc(Nc3ccc(F)c(Cl)c3)c2c1 | > 40 µM | > 40 µM | 
16 | C[C@H]1[C@@H](OCCCCOCc2ccc3ncnc(Nc4ccc(F)c(Cl)c4)c3c2)O[C@@H]2O[C@@]3(C)CC[C@H]4[C@H](C)CC[C@@H]1[C@@]24OO3 | 0.36 µM | 3.81 µM | 
17 | C[C@H]1[C@H](OC(=O)CCCCC(=O)OCc2ccc3ncnc(Nc4ccc(F)c(Cl)c4)c3c2)O[C@@H]2O[C@@]3(C)CC[C@H]4[C@H](C)CC[C@@H]1[C@@]24OO3 | 0.31 µM | 3.51 µM | 
18 | C[C@H]1[C@H](OCCCCOCc2ccc3ncnc(Nc4ccc(F)c(Cl)c4)c3c2)O[C@@H]2O[C@@]3(C)CC[C@H]4[C@H](C)CC[C@@H]1[C@@]24OO3 | 2.42 µM | 12.6 µM | 
19 | C[C@@H]1CC[C@H]2[C@@H](C)C(O[C@H](C(=O)OCc3ccc4ncnc(Nc5ccc(F)c(Cl)c5)c4c3)c3ccccc3)O[C@@H]3O[C@@]4(C)CC[C@@H]1[C@]32OO4 (stereo partly drawn) | 0.89 µM |  | 
20 | C[C@H]1[C@H](OC[C@H](N)c2ccccc2)O[C@@H]2O[C@@]3(C)CC[C@H]4[C@H](C)CC[C@@H]1[C@@]24OO3 | 16.2 µM | 15.1 µM | 
21 | C[C@H]1[C@@H](OCc2ccc3ncnc(Nc4ccc(F)c(Cl)c4)c3c2)O[C@@H]2O[C@@]3(C)CC[C@H]4[C@H](C)CC[C@@H]1[C@@]24OO3 | 0.29 µM | 10.8 µM | 
22 | C[C@H]1[C@H](OCCCCCOc2ccc3ncnc(Nc4ccc(F)c(Cl)c4)c3c2)O[C@@H]2O[C@@]3(C)CC[C@H]4[C@H](C)CC[C@@H]1[C@@]24OO3 | 0.35 µM | 5.7 µM | 
23 | CC(=O)N(c1ccc(F)c(Cl)c1)c1ncnc2ccc(COC(=O)CCCCC(=O)N[C@@H]3O[C@@H]4O[C@@]5(C)CC[C@H]6[C@H](C)CC[C@@H]([C@H]3C)[C@@]46OO5)cc12 | 11.8 µM | 27.8 µM | 
24 | CC(=O)N(c1ccc(F)c(Cl)c1)c1ncnc2ccc(COC(=O)CCCC(=O)O[C@@H]3O[C@@H]4O[C@@]5(C)CC[C@H]6[C@H](C)CC[C@@H]([C@H]3C)[C@@]46OO5)cc12 | 0.78 µM | 15 µM | 
25 | CC(=O)O[C@H]1C(=O)[C@@]2(C)[C@H]([C@H](OC(=O)c3ccccc3)[C@]3(O)C[C@H](OC(=O)[C@H](O)[C@@H](NC(=O)c4ccccc4)c4ccccc4)C(C)=C1C3(C)C)[C@]1(OC(C)=O)CO[C@@H]1C[C@@H]2O [PACLITAXEL] |  | 0.00032 µM | 
26 | C[C@H]1[C@H](OCCCOCc2ccc3ncnc(Nc4ccc(F)c(Cl)c4)c3c2)O[C@@H]2O[C@@]3(C)CC[C@H]4[C@H](C)CC[C@@H]1[C@@]24OO3 | 6.54 µM | 15.8 µM | 
27 | CC(=O)N(c1ccc(F)c(Cl)c1)c1ncnc2ccc(COC(=O)CCC(=O)O[C@@H]3O[C@@H]4O[C@@]5(C)CC[C@H]6[C@H](C)CC[C@@H]([C@H]3C)[C@@]46OO5)cc12 | 0.28 µM | 9.29 µM | 
28 | C[C@H]1[C@@H](OCCCOCc2ccc3ncnc(Nc4ccc(F)c(Cl)c4)c3c2)O[C@@H]2O[C@@]3(C)CC[C@H]4[C@H](C)CC[C@@H]1[C@@]24OO3 | 2.11 µM | 5.18 µM | 
